In US8236848B2, “Diindolylmethane for the treatment of HPV infection” (BioResponse, L.L.C., priority 2001, dated 2012):

What was measured:
[1] = human, in vivo
Experimental: The subject is preferably fasting and plasma is preferred over serum. In this method 120 mg or more of formulated DIM (30 mg or more of actual DIM) are taken orally by a subject fasting for at least 4 hours along with 8 ounces of water. Blood samples are obtained on a timed basis between 120 and 180 minutes after ingesting the DIM. Samples obtained during this timeframe are analyzed by a Gas Chromatography Mass Spectrometry (GC-MS) technique. Circulating amounts of DIM during this timeframe are maximal levels following a single dose. […] The following steps describe the method for determining amounts of absorbed DIM in blood. • 1. […] The following ions are monitored: m/z 390 (primary), 391,392 (confirmatory). Area for peak 390 is measured. • 9. […]
For blood level studies adult subjects were studied in a fasting state. […] Sample analysis using a technique for GC-MS measurement of Diindolylmethane, involving acetonitrile extraction, silyation, and GC-MS quantitation was performed as adapted from the literature (Stresser, D. M., Bjeldanes, L. F., Bailey, G. S., et al., “The anticarcinogen 3,3′-Diindolylmethane is an inhibitor of cytochrome P-450”, J. Biochem. Toxicol., 10(4):191-201 (1995)) and described in section 4.2 above. […]

[2] = Urinary Diindolylmethane levels by GC-MS after a single oral dose; type: in vivo, human; conditions: for Urinary DIM: 75 mg oral dose (300 mg of 25% formulation), single individual
Experimental: The invention also provides a method for determining the urine level of DIM in a subject following oral administration of Diindolylmethane. In this method 300 mg or more of formulated DIM (75 mg or more of actual DIM) are taken with 8 ounces of water. Urine samples are obtained every 90 minutes for a period of 360 minutes. GC-MS operating conditions included were based on a published GC-MS analysis technique for DIM in urine (Sepkovic D W, Bradlow H L, Bell M, “Quantitative Determination of 3,3′-Diindolylmethane in the Urine of Individuals Receiving Indole-3-Carbinol” J. Nutrition (2002 in press). The following technique for analyzing DIM in urine samples was used: • 1. A 1 cc aliquot of urine for assay of diindolylmethane is mixed with 1 cc of sodium acetate buffer (pH 4.8) and 20 ul Beta-Glucuronidase from Helix Pomatia (110,200 units/ml: Sigma, St. Louis, Mo.). • 2. The solution is incubated at 40° C. for 24 hours. • 3. An internal standard of 4,4′dichlorodiindolylmethane is then added. • 4. The sample is then extracted in twice equal volume of chloroform and the sample vortexed and reduced to dryness under vacuum. • 5. The dried residue is dissolved in 20 uL of anhydrous pyridine and derivatized with 80 ul of N2O-bis-(timethyl-silyl)trifluoroacetamide (BFSTA) (Pierce Biochemical Co, Rockford, Ill.). The sample is heated to 100° C. for one hour. • 6. The derivatized sample is then injected into a Gas Chromatography Mass Spectrometer (GC-MS) in single ion monitoring mode recording results at a derivatized mass of 390. The following ions are monitored: m/z 390 (primary), 391,392 (confirmatory). Area for peak 390 is measured. • 7. Peaks are compared to a standard curve for pure diindoylylmethane in known concentrations as a standard. • 8. Creatinine in each 90 minute timed urine sample was measured by a standard Kinetic Alkaline Picrate (KAP) colormetric assay with results in mg of creatinine per cc of urine. • 9. Results obtained for DIM from the 1 cc aliquot of each timed urine sample are reported as nanograms of DIM per mg of Creatinine. This permits comparisons of urine samples of different water content in different timed samples eliminating the effects of changing hydration status of the human subject.
A related gas chromatography-mass spectrometry (GC-MS) method for the quantitation of Diindolylmethane in urine was developed. This technique is simpler, requiring less sample preparation but similar use of GC-MS analysis and provides results expressed as nanograms of Diindolylmethane per mg of Creatinine (ng DIM per mg Cre). Since production rates of Creatinine (Cre) are constant in an individual this technique allows comparison of urine samples from different times having differing water content. Sepkovic, D. W., Bradlow, H. L. Bell, M., Quantitative Determination of 3,3′-Diindolylmethane in the Urine of Individuals Receiving Indole-3-Carbinol, J. Nutrition (in press 2002).
A single individual was studied after taking 75 mg Diindolylmethane (300 mg of a 25% absorption-enhance formulation of Diindolylmethane) as a single dose after waiting 4 days since prior use of Diindolylmethane. Urine samples were collected every 90 minutes for a total of 360 minutes, frozen, and subsequently analyzed as described.

[3] = system: cutaneous warts (verrucae vulgaris); assay: Oral Diindolylmethane with Pregnenolone for cutaneous warts (case three); type: in vivo, human; conditions: patient three; dose increased to maximum of 150 mg/day over 6 weeks
Experimental: Pregnenolone at 50 mg/day in a capsule form was added for immune enhancement.

[4] = system: verrucae involving the plantar skin; assay: Oral Diindolylmethane for childhood warts (case two); type: in vivo, human; conditions: child two; 75 mg/day (3 mg/kg/day)
Excerpt: The usefulness of oral forms of Diindolylmethane in treating verrucous disease of childhood is illustrated by the case of C. B. The subject is a child with classic verrucae involving the plantar skin of one foot. The process began as a single wart, which was frozen with liquid nitrogen by a pediatrician. […] Within 2 months, however, a new wart recurred at the sight of the original scar. Upon recurrence the primary lesion measured approximately 0.75 cm in diameter but was now circled by a number of smaller satellite lesions surrounding the recurrent primary wart.
Treatment was initiated with 75 mg/day of Diindolylmethane in an absorbable formulation (300 mg total formula weight). With the patient weighing 25 kg, this provided 3 mg/kg/day of Diindolylmethane and 12 mg/kg/day of the formulation. […] There was no pain or scarring associated with the gradual resolution.

[5] = system: HPV-related cervical dysplasia; assay: Oral Diindolylmethane for HPV-related cervical dysplasia (case histories and open pilot study); conditions: four women, 112 mg/day actual Diindolylmethane
Excerpt: Women with moderate to severe dyplasia on cervical biopsies volunteered for an open trial of oral Diindolylmethane supplementation.
Four women, meeting the criteria of moderate to severe HPV-related cervical dysplasia were included in a pilot study.

[6] = system: Recurrent Laryngeal Papillomatosis (RRP); assay: Oral therapy of Recurrent Laryngeal Papillomatosis in a child (case one); type: in vivo, human; conditions: child A. L.; oral I3C 5-7 mg per kg, 6 months; no lengthening of intervals between surgical procedures
Experimental: The following describes oral Diindolylmethane therapy for the Recurrent Laryngeal Papillomatosis (RRP), a rare condition in which wart like lesions develop in and around the larynx and vocal cords in association with HPV. patient one is a child with RRP. They were diagnosed with RRP. Before Diindolylmethane therapy they had undergone 21 laryngoscopic surgical procedures for recurrent laryngeal papillomas compromising their airway. […] Tracheostomy was performed in 1998 to provide a more secure airway. Diindolylmethane in an absorbable formulation according to U.S. Pat. No. […] Surgical frequency increased immediately to two months.

laryngeal papillomatosis = conditions: cited from earlier work
[7] = system: cervical intraepithelial neoplasia (CIN); conditions: after 3 months on either 200 mg/day or 400 mg/day of I3C; 8 of 17; cited from earlier work
[8] = dietary supplementation with I3C, laryngeal papillomatosis

| Structure (SMILES) | Augmentation in Diindolylmethane blood levels from the low to high dose [1] | Urinary DIM ([2]; 90 minutes) | Urinary DIM ([2]; 180 minutes) | Urinary DIM ([2]; 270 minutes) | Urinary DIM ([2]; 360 minutes) | Plateau of urinary Diindolylmethane ([2]; 75 mg oral dose, around 180 minutes following oral dosing) | Side effects [3] | Side effects associated with the oral treatment [4] | Side effects or adverse events [5] | Clinical response of laryngeal papillomas [6] | Doses with neurologic and gastrointestinal toxicity (laryngeal papillomatosis; clinical use of I3C) | Disappearance of existing lesions (laryngeal papillomatosis; [8]) | Patients with cessation of papilloma growth (laryngeal papillomatosis; [8]) | Maximal tolerated dose (laryngeal papillomatosis; gastrointestinal and central nervous system side effects on increasing the dose) | Treated patients with normalized cervical biopsy [7] |
| --- | --- | --- | --- | --- | --- | --- | --- | --- | --- | --- | --- | --- | --- | --- | --- |
| c1ccc2c(Cc3c[nH]c4ccccc34)c[nH]c2c1 [Diindolylmethane] | more than 3 times | 2.6 ng/mg Cre | 3.82 ng/mg Cre | 3.30 ng/mg Cre | 2.50 ng/mg Cre | 3.5 ng/mg Creatinine | without side effects | No side effects | no significant side effects or adverse events | – | – | – | – | – | – |
| OCc1c[nH]c2ccccc12 [I3C, Indole-3-carbinol] | – | – | – | – | – | – | – | – | – | failed to produce clinical improvement | more than 400 mg per day | did not result in the disappearance of existing lesions in any patient | 33% | 5 to 7 mg/kg | 50% |
